The values that follow come from patent US8741889B2, “Method of treating non-small cell lung cancer and colon cancer with gamma-secretase inhibitor” (Hoffmann-La Roche Inc, priority 2008, dated 2014).

Series [1] concerns MiaPaca2 human pancreatic carcinoma xenografts. As to the kind of experiment: Antitumor efficacy in MiaPaca2 pancreatic xenografts in nude mice. It is filed as in vivo. The settings on record: day 37. On the procedure:
Female (athymic nu/nu) nude mice were obtained from Charles River Laboratories (Wilmington, Mass.), while female SCID-beige mice were purchased from Taconic (Germantown, N.Y.). Mice were used when they were approximately 8-12 weeks old (nudes) or 8-10 weeks old (SCID-beige), and weighed approximately 23-25 grams. The health of all animals was determined daily by gross observation of experimental animals and by the analyses of blood samples of sentinel animals that were housed on the shared shelf racks. All animals were allowed to acclimate and recover from any shipping related stress for a minimum of 72 hours prior to experimental use. Autoclaved water and irradiated food [5058-ms Pico chow (mouse) Purina, Richmond, Ind.] were provided ad libitum, and the animals were maintained on a 12 hour light and dark cycle. Cages, bedding and water bottles were autoclaved before use and were changed weekly. MiaPaca2, AsPC1 and BxPC3 human pancreatic carcinoma cells were purchased from ATCC (Manassas, Va.). BxPC3 and AsPC1 cells were grown in RPMI medium and MiaPaca2 cells were grown in Dulbecco's Modified Essential Medium (DMEM). All culture media were supplemented with 10% (v/v) FBS and 1% (v/v) […]. […] SCID-biege mice were implanted se with 5×10^6 BxPC3 cells in a 1:1 mixture of matrigel:PBS in a volume of 0.2 ml per mouse in the right hind flank on May 22, 2007. […] Formulated compound and vehicle were stored at 4° C. and prepared weekly. The suspension was mixed vigorously prior to administration. Gemcitabine (Gemzar®, Eli Lilly and Company, Indianapolis, Ind., USA) was reconstituted with sterile saline to yield a stock solution of 38 mg/ml for the entire 3-4 week study. […] Nude mice implanted with MiaPaca2 or AsPC1 xenografts were randomized on day 17 and day 9 post cell implant, respectively. SCID-beige mice bearing BxPC3 xenografts were randomized 8 days post implant. […] Treatment for the MiaPaca2 study began on Feb. […] For the MiaPaca2 and AsPC1 studies, qd Compound (1) suspension or q3d gemcitabine treatment ended on day 37 post tumor cell implant, whereas for the BxPC3 study, qd Compound (1) suspension or q3d gemcitabine treatment ended on day 35 post tumor cell implant. For intermittent dosing of Compound (1) suspension in the MiaPaca2 study using the 7+/7−/7+ schedule, treatment ended on day 23, was reinitiated on day 31, and ended day 37. In the combination groups Compound (1) suspension was given sequentially with gemcitabine using the 7+/7−/7+ schedule so that Compound (1) was dosed daily only during the first and third weeks, whereas gemcitabine was dosed q3d during the second week only. Efficacy data was graphically represented as the mean tumor volume+standard error of the mean (SEM). Tumor volumes of treated groups were presented as percentages of tumor volumes of the control groups (% T/C), using the formula: 100×((T−T0)/(C−C0)), where T represented mean tumor volume of a treated group on a specific day during the experiment, T0 represented mean tumor volume of the same […] on the first day of treatment; C represented mean tumor volume of a control group on the specific day during the experiment, and C0 represented mean tumor volume of the same treated group on the first day of treatment. Tumor volume (in cubic millimeters) was calculated using the ellipsoid formula: (D×(d2))/2 where ‘D’ represents the large diameter of the tumor, and ‘d’ represents the small diameter. In some cases, tumor regression and/or percent change in tumor volume was calculated using the formula: ((T−T0)/T0)×100 where ‘T’ represents mean tumor volume of the treated group at a particular day, and ‘T0’ represents mean tumor volume of the same treated group at initiation of treatment. Statistical analysis was determined by the rank sum test and One Way Anova and a post-hoc Bonferroni t-test (SigmaStat, version 2.0, Jandel Scientific, San Francisco, Calif.). […]

The nature of series [2]: Plasma drug exposure in nude mice. It is filed as in vivo. The settings on record: for Cmax / AUC(0-t): po, 10 mg/kg. On the procedure:
Plasma samples were prepared and analyzed for compound (1) by LC/MS/MS. Mean plasma concentrations were calculated from 2 animals/group/time point. Plasma samples with concentration below the limit of quantification (<12.5 ng/ml) were set to zero. The pharmacokinetic parameters were estimated from the mean plasma concentration data. Sampling times were reported as nominal time. The pharmacokinetic parameters reported are the maximum plasma concentration (Cmax), the area under the plasma concentration-time curve from zero to 8 hr (AUC0-8 hr), and dose normalized AUC (AUC0-8 hr/Dose). The Cmax values were taken directly from the plasma concentration-time profiles […] without any extrapolation. The AUC was calculated using the linear trapezoidal rule.

Where two headings read alike, the source gives them in different places.

Turning to `CC(C)(C(=O)NCC(F)(F)C(F)(F)F)C(=O)N[C@@H]1C(=O)Nc2ccccc2-c2ccccc21` [Compound (1), 2,2-Dimethyl-N—((S)-6-oxo-6,7-dihydro-5H-dibenzo[b,d]azepin-7-yl)-N′-(2,2,3,3,3-pentafluoro-propyl)-malonamide], the “% TGI” value in series [1] (1 mg/kg po qd × 21 days) came to 39%; in series [1] (3 mg/kg po qd × 21 days), 42%; in series [1] (10 mg/kg po qd × 21 days) it was 53%; in series [1] (10 mg/kg po, 7+/7−/7+), 51%; in series [1] (30 mg/kg po, 7+/7−/7+) it was 58%; in series [1] (60 mg/kg po, 7+/7−/7+), 48%. In addition, in series [2] (independent PK study in nude mice, up to 30 mg/kg), the “dose proportionality of plasma exposure” value is listed as “excellent dose proportionality”. For the same molecule, in series [2] (mouse), the oral bioavailability entry is reported as “moderate to high”. Besides, the Cmax (as a rule, the highest concentration seen after dosing) was determined as 708 ng/mL in series [2] (nude, mouse, plasma, 10 mg/kg po qd, Day 21 (chronic dosing)) and 559 ng/mL in series [2] (nude, mouse, plasma, 10 mg/kg po, Day 1 (single dose, naïve mice)). Also, the AUC(0-t) was 923 ng·h/mL in series [2] (nude, mouse, plasma, 10 mg/kg po qd, Day 21 (chronic dosing), read-out: AUC0-8 hr); 1280 ng·h/mL in series [2] (nude, mouse, plasma, 10 mg/kg po, Day 1 (single dose, naïve mice), read-out: AUC0-8 hr); around 1100 ng·h/mL in series [2] (nude, mouse, plasma, oral daily dosing of 10 mg/kg, read-out: Exposures (AUC24h) producing efficacy). For the same molecule, the AUC in series [2] (nude, mouse, plasma, oral daily dosing of 10 mg/kg, read-out: Exposures producing efficacy (AUC24/day)) was around 1100 ng·h/mL.
